Test results taken from patent US9642922B2, “Caspase-triggered nano-aggregation probes and methods of use” (The Board of Trustees of the Leland Stanford Junior …, priority 2013, dated 2017).
Numbered stars: 1 amine (or outer) side, 2 acyl side, 3 side chain; on linkers, the order of the positions; unused ones are H or OH. Square brackets hold non-standard residues; d marks the D form. Peptide text beside a SMILES is read from it. * marks the point of attachment. DOTA = O=C(O)CN1CCN(CC(=O)O)CCN(CC(=O)*)CCN(CC(=O)O)CC1; X1 = O=C(C1CSC(c2nc3ccc(N[*:1])cc3s2)=N1)[*:2]; X2 = N#Cc1ccc2cc(OCCCN*)ccc2n1; SEt = CCS*

Experiments:
caspase-9 = biological target: T1, caspase-9 (Homo sapiens, UniProt P55211); test: HPLC enzyme specificity assay of C-SNAF, caspase-9; type: biochemical; details: 25 μM probe, 0.735 μg/ml enzyme
T1 construct: purchased Calbiochem; host or cells: E. coli
Protocol: The specificity of C-SNAF towards other representative cysteine proteases such as caspase-7, caspase-9, cathepsin B, and legumain was examined.
Caspase (human, recombinant from E. coli) assays were performed for caspase-3 (4.9×10^−3 U; 7.35×10^−4 mg, Sigma), −7 (18.3 U; 7.35×10^−4 mg, Calbiochem), and −9 (0.3 U; 7.35×10^−4 mg, Calbiochem). All caspase assays were conducted in caspase buffer with 50 mM HEPES, 100 mM NaCl, 1 mM EDTA, 10 mM TCEP, 10% glycerol, and 0.1% CHAPS at pH 7.4. Cathepsin B (human liver; 0.27 U; 7.35×10^−4 mg, Calbiochem) and Legumain (human, recombinant from mouse myeloma cell line; >250 pmol/min/μg; 7.35×10^−4 mg, R&D Systems) were conducted in reaction buffer with 50 mM sodium acetate, 50 mM NaCl, 0.5 mM EDTA and 10 mM TCEP at pH 5.5. C-SNAF was diluted in the respective enzyme reaction buffer (25 μM, 1 mL) and remained at room temperature for 10 min, to which was then added the respective enzymes. Reactions were performed at 37° C., and monitored by HPLC hourly. The percentage conversion of the reaction was calculated based on the percentage of peak area of C-SNAF-cycl in the HPLC trace at 675 nm UV detection, which indicated the efficacy of enzyme cleavage of C-SNAF.

[1] = test system: STS-induced apoptotic HeLa cells; test: Flow cytometry of STS-induced apoptotic HeLa cells labeled with probes; type: cell-based, human
Protocol: Approximately 10^5 HeLa cells in 1 mL DMEM medium were seeded onto 12-well plates. […] For the inhibitor blocking experiment, the STS-treated cells were first incubated with the caspase inhibitor Z-VAD-fmk (50 μM, R&D Systems) for 30 min, and then 2 μM C-SNAF was added. All cells incubations were 24 h, followed by staining with FLICA (FAM) after trypsinization. After washing with PBS (1×) three times, the cell pellets were resuspended in 300 μL PBS and applied for flow cytometry analysis using the FITC and Cy5.5 channels. The cell number for each flow cytometry analysis was approximately 5000 to 10000, and the data was processed using FlowJo software.

caspase-3/7 = test: HPLC analysis of C-SNAF reaction in apoptotic cell lysates; type: biochemical, human; details: 5 μM, lysate of STS- and DOX-induced apoptotic HeLa or MDA-MB-231 cells
Protocol: To confirm the formation of the caspase-3/7-triggered intramolecular cyclization product C-SNAF-cycl in apoptotic cells, C-SNAF (5 μM) was incubated with both cell lysates and whole cells, and the products were analyzed by HPLC. […] However, more than 90% of C-SNAF was converted to C-SNAF-cycl in the lysate of STS- and DOX-induced apoptotic HeLa (FIG. 12A) or MDA-MB-231 cells, indicating the efficient intramolecular condensation initiated by caspase-3/7 in a complex cellular environment.
The culture medium was carefully removed and the cells were washed with cold 1×PBS. The cells were trypsinized to form cell pellets, and RIPA (RadioImmuno Precipitation Assay, sigma) buffer was added to cells using 100 μL of buffer per 4×10^6 cells. Then the cells were kept on ice for 0.5 h. The cell lysate was gathered, centrifuged at 14,000×g for 15 min at 4° C. The supernatant of the cell lysate was collected, and the caspase-3/7 activity in the lysate was determined by CASPASE-GLO® 3/7 assay. The cell lysate was diluted with caspase reaction buffer (2×, 1:1 diluted), and incubated with C-SNAF (5 μM) at 37° C. overnight and then injected into an HPLC system (Dionex) for analysis.

[2] = Blood circulation and elimination in healthy nude mice; details: 5 nmol i.v.
viable HeLa cells = test: Cell viability study (trypan blue); type: cell-based, human; details: 250 μM for 24 h
Protocol: About 2×10^5 HeLa cells in 1 mL DMEM medium were seeded onto 12-well plates. […] After 24 h incubation, the medium was removed, and the cells were trypsinized. The cell number was counted using trypan blue assay. The viability of cell with blank medium was set as 100%, and cells incubating with 1 or Dotarem were normalized to that in blank medium.

T1 sequence (P55211 1-315 limits assumed): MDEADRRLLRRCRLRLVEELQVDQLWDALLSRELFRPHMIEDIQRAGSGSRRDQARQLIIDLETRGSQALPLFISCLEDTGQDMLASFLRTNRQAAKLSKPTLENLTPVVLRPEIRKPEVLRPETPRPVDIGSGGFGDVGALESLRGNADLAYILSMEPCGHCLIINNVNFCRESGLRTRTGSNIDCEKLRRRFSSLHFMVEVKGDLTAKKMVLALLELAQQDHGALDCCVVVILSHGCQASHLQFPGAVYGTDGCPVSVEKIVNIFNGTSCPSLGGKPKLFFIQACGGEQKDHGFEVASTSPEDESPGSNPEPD

Row | SMILES | activity of caspase-9 towards probe (caspase-9) | labeling of FLICA-positive apoptotic cells ([1]; 2 μM probe, STS-induced apoptotic HeLa) | increase in Cy5.5 fluorescence of apoptotic relative to viable cells ([1]; 2 μM probe, STS-treated HeLa, flow cytometry) | effect of caspase inhibitor Z-VAD-fmk on the increased fluorescence ([1]; Z-VAD-fmk 50 μM) | C-SNAF converted to C-SNAF-cycl in lysate (caspase-3/7) | blood half-life [2] | time of nearly complete elimination after administration [2] | cytotoxicity, effect on cell viability (viable HeLa cells)
1 | CCSSC[C@@H](NC(=O)[C@H](CC(=O)O)NC(=O)[C@@H](NC(=O)[C@H](CCC(=O)O)NC(=O)[C@H](CC(=O)O)NC(C)=O)C(C)C)C(=O)N[C@@H](CCCCNC(=O)CCCCCN1C(=CC=CC=CC2=[N+](CC)c3ccc4c(S(=O)(=O)[O-])cc(S(=O)(=O)O)cc4c3C2(C)C)C(C)(C)c2c1ccc1c(S(=O)(=O)O)cc(S(=O)(=O)O)cc21)C(=O)Nc1ccc2nc(C3=N[C@@H](C(=O)NCCCOc4ccc5nc(C#N)ccc5c4)CS3)sc2c1 [C-SNAF] | essentially no activity | efficiently labeled | ~13 fold | inhibited by Z-VAD-fmk | more than 90% | 1.0 ± 0.45 h | ≤ 12 h | –
2 | CCSSCC(NC(=O)C(CC(=O)O)NC(=O)C(NC(=O)C(CCC(=O)O)NC(=O)C(CC(=O)O)NC(C)=O)C(C)C)C(=O)NC(CCCCNC(=O)CN1CCN(CC(=O)[O-])CCN(CC(=O)[O-])CCN(CC(=O)[O-])CC1)C(=O)Nc1ccc2nc(C3=NC(C(=O)NCCCOc4ccc5nc(C#N)ccc5c4)CS3)sc2c1.[Gd+3] (centres unmarked) [probe 15] (Ac-DEVDC(SEt)K(DOTA)[X1]-X2; configuration not given here) | – | – | – | – | – | – | – | no adverse effects on cell viability
